In paper PMC4285699 (Journal of molecular biology, 2009):

Legend:
[1] = target: T1, HIV-1 RT-associated RNase H activity (polymerase-independent) (Human immunodeficiency virus type 1 group M subtype B, UniProt P03366); assay: biochemical; settings: IC50, primary cleavage, 600 nM chimeric hybrid labelled at 3' DNA end, 50 nM RT
p66^AzF/p51 RT = assay: FRET-based RNase H assay; assay type: biochemical, HIV-1; settings: azido function at position 501 (AzF)
p66^501BpF/p51 RT = p66^501BpF/p51 RT (Human immunodeficiency virus type 1, UniProt P03366, Y1100X); assay: FRET-based RNase H assay; assay type: biochemical, HIV-1
[2] = target: HIV-1 RT-associated RNase H activity (Human immunodeficiency virus type 1 group M subtype B, UniProt P03366); assay: Pre-steady-state single turnover RNase H reactions; assay type: biochemical; settings: PFA 0-10 μM, dTMP-terminated primer
[3] = target: T1, HIV-1 RT-associated RNase H activity (polymerase-independent); assay type: biochemical; settings: PFA 200 μM; chimeric substrate PBS-14r8d, 0-40 min

CC(C)c1ccc(O)c(=O)c(O)c1 [β-thujaplicinol]
IC50 [1]: > 25 µM
Effect of mutation on β-thujaplicinol sensitivity (p66^AzF/p51 RT): little to no effect
IC50 (p66^501BpF/p51 RT): > 300 µM

O=C(O)P(=O)(O)O [PFA, Phosphonoformic acid]
Position of RNase H cleavage with increasing ligand concentration [2]: biased cleavage to position -19
Inhibition of polymerase-independent RNase H cleavage [3]: does not inhibit RNase H cleavage
